Experimental data taken from patent publication US11426371B2, “Compositions and methods for treating cancer” (University of Virginia Patent Foundation, priority 2017, dated 2022).
Read-outs that look alike come from different tables or passages of the source.

What was measured:
[1] = system: normal samples (PBMCs and/or CD34+ cells); experiment: Viability of normal samples, MTS and Cell Titer Glo (FIG. 4, Table 2); type: cell-based; conditions: 24 hours
Procedure: (§1) AML cell lines and normal samples (PBMCs and/or CD34+ cells) were treated for 24 hours with SACLAC (FIG. 4A-7 cell lines) and similar AC inhibitor SABRAC (2-bromo-N-((2S,3R)-1,3-dihydroxyoctadecan-2-yl)acetamide) (FIG. 4B-four cell lines). Viability was assessed by MTS and Cell Titer Glo viability assays. EC50 values (FIG. 4C) were graphed to visualize fold-change between AML and normal cells with treatment of each compound. […] Cells tested for SABRAC were HL60/VCR and OCI-AML2 AML cell lines and two normal PBMC control samples (PBMC1 and PBMC2). The same four cell types were tested for SACLAC, as well as the AML cell line THP-1 and two normal CD34+ cell control samples (CD34+1 and CD34+2).
(§2) Next, we tested the toxicity of SACLAC and a similar published AC inhibitor SABRAC^17 to normal hematopoietic cells to ensure that AML cells are selectively targeted by the compound (FIG. 4A). […] This degree of selectivity was unexpected but extremely important for potential clinical use. […] This remarkable increase in selectivity is a surprising discovery that greatly exceeds the predicted similarity in compound behavior that one may expect with a simple substitution of one halogen for another (Cl for Br).

[2] = system: AML cell lines (HL60/VCR, OCI-AML2, THP-1); experiment: Viability of AML cell lines, MTS and Cell Titer Glo (FIGS. 2, 4, Table 2); type: cell-based, human; conditions: 24 hours
Procedure: Representative human AML cell lines (FIG. 2A; upper and lower panels) HL60/VCR and (FIG. 2B; upper and lower panels) OCI-AML2 were treated with SACLAC for 24 and 48 hours. Viability was assessed by MTS assay at 24 and 48 hours and apoptosis was assessed by flow cytometry at 48 hours. Upper panels represent % viability and lower panels indicate % apoptosis.
as §1, §2

EC50 ([2]; Homo sapiens, 24 h, mean of AML cell lines, read-out: EC50 AML): 0.36 µM
Structure (SMILES): CCCCCCCCCCCCCCC[C@@H](O)[C@H](CO)NC(=O)CBr [SABRAC, 2-bromo-N-((2S,3R)-1,3-dihydroxyoctadecan-2-yl)acetamide, reference compound]
EC50 ([1]; SACLAC: PBMC1, PBMC2, CD34+1, CD34+2, SABRAC: PBMC1, PBMC2, order of samples not given, read-out: EC50, single normal samples (FIG. 4A, 4B)): 0.6 µM
EC50 ([1]; PBMC, 24 h, mean of normal samples (PBMCs and/or CD34+ cells), read-out: EC50 Normal): 0.45 µM
Fold Change ([2]; EC50 Normal versus EC50 AML): 1.25
